Measured values reported in patent US7314858B2, “Retrocyclins: antiviral and antimicrobial peptides” (priority 2001, dated 2008).
Entries after “also recorded” stand apart in the source; their conditions may differ. Where a SMILES comes first, the peptide text is derived from it. Bridges are numbered along the chain shown (N, C = ends).

How the values were obtained:
HIV-1 IIIB = experiment: Activity of theta-defensins against HIV-1 IIIB (FIG. 21); type: cell-based
From the text: (§1) FIG. 21A-21B. Activity of theta-defensins against HIV-1 BAL; and HIV-1 IIIB.
(§2) The data shown in FIGS. 21A and 21B illustrate the activity of these retrocyclin-related peptides against two different strains of HIV-1, BAL and IIIB. […] BAL and IIIB are widely studied, laboratory adapted strains of HIV.

HIV-1 BAL = experiment: Activity of theta-defensins against HIV-1 BAL (FIG. 21); type: cell-based
From the text: as §1, §2

HIV-1 strain IIIB [1] = experiment: HIV-1 IIIB infection of CD4+ PBMC, p24 antigen ELISA; type: cell-based; settings: CD4+ PBMC, IIIB (X4), peptide 10-20 μg/ml
Protocol: FIG. 5A-C. Anti-HIV-1 activity of retrocyclin. Two strains of HIV-1 and two types of human target cells were used. The IIIB strain is T-cell tropic (X4) and utilizes the CXCR4 co-receptor for entry; the JR-CSF strain is M-tropic (R5) and uses CCR5 for entry. PBMC signifies CD4^+-selected peripheral blood mononuclear cells. […] (A) Two concentrations of retrocyclin (2 μg/ml, 20 μg/ml), 20 μg/ml of the Rhesus circular defensin “RTD-1”, and 20 μg/ml of a horseshoe crab-derived peptide “T140”, reported to only prevent X4 infections, were tested in antiviral assays of against strain IIIB in H9 cells (n=2-6 per peptide; error bars indicate SEM). (B) To confirm our results with primary human cells, similar assays were performed utilizing IIIB virus and CD4^+ PBMC or (C) JR-CSF virus and CD4^+ PBMC. […] Average of duplicate experiments are reported for studies with PBMCs. Assay sensitivity=10 pg/ml.
Either HIV-1-permissive H9 cells were used as targets, or primary CD4^+ lymphocytes from HIV-1-seronegative donors generated from freshly purified peripheral blood mononuclear cells (PBMC) stimulated with a CD3-CD8 bispecific monoclonal antibody. […] These cells were maintained in RPMI containing 10% FCS supplemented with 2 mM glutamine, 100 U of penicillin/ml, 10 μg of streptomycin/ml, and 50 U of interleukin 2/ml (R10-50 media).
Examining the effect of adding retrocyclin at various times pre- and post-HIV-1 infection. […] Primary CD4^+ PBMC were incubated with HIV-IIIB (FIG. 6) or HIV-JR-CSF for 3 hours in the presence or absence of 20 μg/ml retrocyclin. The cells were subsequently washed in media, and incubated an additional 9 days. Retrocyclin (20 μg/ml) was added back to some of the cultures at time points specified in FIG. 6 and infection was monitored by p24 ELISA as previously described. […]

HIV-1 strain JR-CSF = experiment: HIV-1 JR-CSF infection of CD4+ PBMC, p24 antigen ELISA; type: cell-based; settings: JR-CSF (R5), peptide 10-20 μg/ml
Protocol: FIG. 5A-C. Anti-HIV-1 activity of retrocyclin. Two strains of HIV-1 and two types of human target cells were used. The IIIB strain is T-cell tropic (X4) and utilizes the CXCR4 co-receptor for entry; the JR-CSF strain is M-tropic (R5) and uses CCR5 for entry. PBMC signifies CD4^+-selected peripheral blood mononuclear cells. […] (A) Two concentrations of retrocyclin (2 μg/ml, 20 μg/ml), 20 μg/ml of the Rhesus circular defensin “RTD-1”, and 20 μg/ml of a horseshoe crab-derived peptide “T140”, reported to only prevent X4 infections, were tested in antiviral assays of against strain IIIB in H9 cells (n=2-6 per peptide; error bars indicate SEM). (B) To confirm our results with primary human cells, similar assays were performed utilizing IIIB virus and CD4^+ PBMC or (C) JR-CSF virus and CD4^+ PBMC. Peptides were not cytotoxic at indicated concentrations, measured by trypan blue exclusion. Average of duplicate experiments are reported for studies with PBMCs. Assay sensitivity=10 pg/ml.
(§3) Either HIV-1-permissive H9 cells were used as targets, or primary CD4^+ lymphocytes from HIV-1-seronegative donors generated from freshly purified peripheral blood mononuclear cells (PBMC) stimulated with a CD3-CD8 bispecific monoclonal antibody. After approximately 7 days, when 98% of these cells co-expressed CD3 and CD4, they were infected with HIV-1 with or without retrocyclin or other test peptide. These cells were maintained in RPMI containing 10% FCS supplemented with 2 mM glutamine, 100 U of penicillin/ml, 10 μg of streptomycin/ml, and 50 U of interleukin 2/ml (R10-50 media).
The p24 assay results shown in FIG. 9 are on a logarithmic scale. A horizontal reference line that passes through 100 on the ordinate scale corresponds to […] of p24 antigen. Results from 3 experiments (each performed with PBMC from a different donor) are shown.

HSV-2 = experiment: HSV inactivation microplate assay on ME-180 cells (MTT); type: cell-based; settings: 2-50 μg/ml, 2 hrs with virus, 72 hrs culture
Protocol: FIG. 14. Inactivation of HSV-1 and HSV-2 by retrocyclin and RC-101. Retrocyclin (left panel) and RC-101 (right panel) at the indicated concentrations were incubated with herpes simplex virus, type 1 (HSV-1) or HSV-2 for 2 hrs and then added to ME-180 cell monolayers. Cells were incubated at 37° C. for 72 hrs, and cytotoxicity was measured with an MTT kit.
Some retrocyclins are slightly active against herpes simplex virus (HSV). To determine if the activity of retrocyclin against HIV-1 was specific or representative of a more global antiviral effect, it was tested its ability to prevent HSV infection in vitro. A quantitative microplate assay was used to screen retrocyclin and retrocyclin-congeners for their ability to inactivate HSV type 1 (HSV-1) and HSV-2. The assay utilized small amounts of peptide and simultaneously evaluated for peptide-induced cytotoxicity. In brief, final peptide concentrations of 2-50 μg/ml were incubated with virus stocks for 2 hrs and added directly to ME-180 human cervical carcinoma cells. Cultures were incubated at 37° C. for 72 hrs and cytotoxicity was measured using a 3-(4,5-dimethylthiazon-2-yl)-2,5-diphenyltetrazolium bromide (MTT) cell proliferation kit (Boehringer-Mannheim, Germany). Calculations to assess antiviral activity and compute “percent protection” are delineated in (90).

L. monocytogenes EGD = experiment: Two-stage radial diffusion assay; type: cell-based, Listeria monocytogenes
Protocol: (§4) FIG. 4. Effect of salt on antibacterial activity of circular minidefensins. Human retrocyclin and monkey RTD-1 were tested against our standard lab stains: E. coli ML-35p, P. aeruginosa MR 3007, L. monocytogenes EGD, and S. aureus 930918. The bars show MIC values±SEM values that resulted from 3-6 radial diffusion assays per organism and assay condition.
(§5) The effects of NaCl on the antimicrobial activity of retrocyclin and RTD-1, from two-stage radial diffusion assays, are compared in FIG. 4.

E. coli ML-35p = experiment: Two-stage radial diffusion assay; type: cell-based, Escherichia coli
Protocol: as §4, §5

HIV-1 strain IIIB [2] = experiment: HIV-1 IIIB infection of H9 cells, p24 antigen ELISA; type: cell-based; settings: H9 cells, IIIB (X4), peptide 10-20 μg/ml
Protocol: FIG. 1. Circular minidefensins reduce HIV-1 infection of H9 cells. HIV-I strain IIIB (MOI=10^−2) was incubated with 2.5×10^5 H9 cells in the presence or absence of 20 μg/ml RTD-1, RTD-2 or RTD-3. p24 antigen release was monitored by ELISA on days 3, 6, and 9. Assay sensitivity=10 pg/ml.
Immortalized CD4^+ H9 cells, which are permissive for infection with this strain, were maintained in RPMI supplemented with 10% heat-inactivated fetal calf serum (FCS), 10 mM HEPES, 2 mM glutamine, 100 U of penicillin/ml, and 10 μg of streptomycin/ml (R10 media). Cells (2.5×10^5/100 μl) were incubated with virus (multiplicity of infection (MOI)=10^−2) in the presence or absence of 20 μg/ml RTD-1, RTD-2 or RTD-3 for 3 hrs at 37° C./5% CO2. The cells were washed in R10 media, seeded in 48-well tissue culture plates in 1 ml R10 media, and incubated at 37° C./5% CO2 for 9 days. Aliquots of cell supernatant were removed at the specified time points and analyzed by a sensitive ELISA (DuPont NEN) that quantitates p24 antigen of HIV-1. The three circular rhesus minidefensins were similarly active, inhibiting HIV-1 by 100-1000 fold by 9 days post-inoculation (note the logarithmic scale).
as §3
Mature retrocyclin was prepared by a three-step process.

MTT cytotoxicity assay = type: cell-based, human; settings: human, H9 cells
Protocol: FIG. 8. Cytotoxicity of antimicrobial peptides against H9 cells. Retrocyclin, RTD-1 and PG-1 (a porcine-derived peptide with anti-HIV-1 activity) were tested for cytotoxicity using an MTT assay for cell proliferation. Note that the EC50 of Retrocyclin and RTD-1 were >100 μg/ml, concentrations well above their antiviral concentration.
Retrocyclin is not cytotoxic. […] Retrocyclin was not hemolytic for human erythrocytes.

HIV-1 = settings: cited from earlier work

In the case of “Orang-2: cyclic GVCRC ICGRG VCRCI CRR (SEQ ID NO:134) (cyclo(GVCRCICGRGVCRCICRR); disulfide (positions not given here); ring closure inferred; not fully specified (bridges))”, the “potency against HIV-1 IIIB” value (HIV-1 IIIB) is reported as “more potent than retrocyclins 1 and 2 and RC101” and the “potency against HIV-1 BAL” value (HIV-1 BAL) is reported as “more potent than retrocyclins 1 and 2 and RC101”.
With “I6Y-Retrocyclin (cyclo(GICRCYCGRGICRCICGR); disulfide (positions not given here); ring closure inferred; not fully specified (bridges)) [RC-102, cyclic …]” the “inhibition of HIV-1 replication (p24)” value (HIV-1 strain IIIB [1]) was “either inactive or only modestly active; also recorded: relatively ineffective”, the “inhibition of HIV-1 replication (p24)” value (HIV-1 strain JR-CSF) was “considerable ability to protect cells; also recorded: substantial activity” and the “protection against HSV-2” value (HSV-2) was “less antiviral than retrocyclin”.
For `CC[C@H](C)[C@@H]1NC(=O)[C@@H]2CSSC[C@H](NC(=O)[C@H](CCCNC(=N)N)NC(=O)[C@@H]3CSSC[C@H](NC1=O)C(=O)N[C@@H]([C@@H](C)O)C(=O)N[C@@H](CCCNC(=N)N)C(=O)NCC(=O)N[C@@H](Cc1ccccc1)C(=O)N3)C(=O)N[C@@H](CC(C)C)C(=O)N[C@H]1CSSC[C@H](NC(=O)[C@H](C(C)C)NC(=O)CNC(=O)[C@H](CCCNC(=N)N)NC(=O)[C@H](CCCNC(=N)N)NC1=O)C(=O)N[C@@H](CCCNC(=N)N)C(=O)N2` [RTD-1, reference compound] (cyclo(GFCRCLCRRGVCRCICTR); disulfide 3-16, 5-14, 7-12), the “effect of salt on antimicrobial activity” value (L. monocytogenes EGD; hypersalinity (175 mM NaCl)) was “only modestly inhibitory”, the antimicrobial activity (L. monocytogenes EGD; physiological (100 mM) NaCl) was “strong activity” and the “effect of salt on antimicrobial activity” value (E. coli ML-35p; hypersalinity (175 mM NaCl)) was “only modestly inhibitory”. The antimicrobial activity (E. coli ML-35p; physiological (100 mM) NaCl) was “strong activity”, the “inhibition of HIV-1 replication (p24)” value (HIV-1 strain IIIB [2]) was “protective to a lesser extent than retrocyclin” and the EC50 (MTT cytotoxicity assay) was greater than 100 µg/mL.
For indolicidin, the “concentration reproducibly virucidal against HIV-1” value (HIV-1) is listed as 333 µg/mL.
